Results as given in PubChem BioAssay (NCI).
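Step 1: Grow cells in 96-well plates. Step 2: Expose to compound for 48 hours at 5 concentrations. Step 3: Interpolate endpoints linearly; if unreached, use highest concentration. TGI: concentration producing complete growth inhibition.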

Legend:
Assay in all cases: NCI tumour cell line growth inhibition, 48 h
MALME-3M melanoma = system: MALME-3M melanoma
DU-145 prostate = system: DU-145 prostate
MDA-MB-231 breast = system: MDA-MB-231 breast
NCI-H460 lung = system: NCI-H460 lung
MOLT-4 leukemia = system: MOLT-4 leukemia
OVCAR-4 ovarian = system: OVCAR-4 ovarian
MCF7 breast = system: MCF7 breast
SK-OV-3 ovarian = system: SK-OV-3 ovarian
NCI-H23 lung = system: NCI-H23 lung
SF-539 CNS = system: SF-539 CNS
ACHN renal = system: ACHN renal
SK-MEL-5 melanoma = system: SK-MEL-5 melanoma
LOX IMVI melanoma = system: LOX IMVI melanoma
SF-295 CNS = system: SF-295 CNS
HL-60(TB) leukemia = system: HL-60(TB) leukemia
UO-31 renal = system: UO-31 renal
SNB-75 CNS = system: SNB-75 CNS
MDA-MB-435 = system: MDA-MB-435

Structure (SMILES) | TGI (MALME-3M melanoma) [µM] | TGI (DU-145 prostate) [µM] | TGI (MDA-MB-231 breast) [µM] | TGI (NCI-H460 lung) [µM] | TGI (MOLT-4 leukemia) [µM] | TGI (OVCAR-4 ovarian) [µM] | TGI (MCF7 breast) [µM] | TGI (SK-OV-3 ovarian) [µM] | TGI (NCI-H23 lung) [µM] | TGI (SF-539 CNS) [µM] | TGI (ACHN renal) [µM] | TGI (SK-MEL-5 melanoma) [µM] | TGI (LOX IMVI melanoma) [µM] | TGI (SF-295 CNS) [µM] | TGI (HL-60(TB) leukemia) [µM] | TGI (UO-31 renal) [µM] | TGI (SNB-75 CNS) [µM] | TGI (MDA-MB-435) [µM]
C[N+](C)([O-])Cc1cccc(NC(=O)c2ccc(C(=O)Nc3cccc(C[N+](C)(C)[O-])c3)cc2)c1 | > 100 | > 100 | > 100 | > 100 | > 100 | > 100 | > 100 | > 100 | > 100 | > 100 | > 100 | > 100 | > 100 | > 100 | > 100 | > 100 |  | 
COc1ccc(C2Oc3cc(OC)c(O)cc3[C@@H]2C)cc1 (some centres undefined) | > 100 |  |  | > 100 | 42.8 | > 100 |  | > 100 | > 100 | > 100 | 33.2 | > 100 | 27.9 | > 100 | 47.4 | 79.3 | 96.6 | 
COC[C@H](Cc1ccccc1)N=Cc1ccccc1 | > 100 | > 100 |  | > 100 | > 100 | > 100 | > 100 | > 100 | > 100 |  | > 100 | > 100 | > 100 | > 100 |  | > 100 | > 100 | > 100
O=C1CSC(c2ccc(Cl)cc2)N1c1ccc(-n2c(-c3ccccc3)nc3ccccc3c2=O)cc1 (centres undefined) | > 100 |  | > 100 | > 100 | > 100 | 41 | > 100 | > 100 | > 100 | > 100 | > 100 | > 100 | > 100 | > 100 |  | > 100 | 69 | > 100
Nc1nc(NC(=O)C2=NS(=O)(=O)c3cc(S(N)(=O)=O)c(Cl)cc3N2)n[nH]1 | > 100 |  |  | > 100 | > 100 | > 100 |  | > 100 | > 100 | > 100 | > 100 | > 100 | > 100 | > 100 |  | > 100 | > 100 | 
CC(C)(C)OC(=O)N(CCCN)CCCCN(CCCN)C(=O)OC(C)(C)C |  | > 100 |  | > 100 | > 100 | > 100 | > 100 | > 100 | > 100 | > 100 | > 100 | > 100 | > 100 | > 100 | > 100 | > 100 | > 100 | > 100
COc1cc(/C=C/C(=O)C(C)(C)C)cc(OC)c1OC | > 100 |  |  | 67.4 | > 100 | > 100 |  | > 100 | 94.4 | > 100 | > 100 | > 100 | 44 | > 100 | 53 | > 100 | 68.5 | 
CC(C)(C)OC(=O)NCCNC(=O)OCc1ccccc1 | > 100 | > 100 |  | > 100 | > 100 |  | > 100 | > 100 | > 100 | > 100 | > 100 | > 100 |  | > 100 |  | > 100 | > 100 | > 100
CC(=O)NC(Cc1ccccc1)C(=S)N1CCCC1 (centres undefined) | > 100 |  |  | > 100 | > 100 | > 100 |  | > 100 | > 100 | > 100 | > 100 | > 100 | > 100 | > 100 | > 100 | > 100 | > 100 | 
COC(=O)c1cc(CNCCc2c[nH]c3ccccc23)on1 | > 100 | > 100 |  | > 100 | > 100 | > 83.3 | > 100 | > 100 | > 100 | > 100 | > 100 | > 100 | > 100 | > 100 | > 100 | > 100 | > 100 | 
Cc1ccc(CCNC(=S)SCC(NC(=O)CCC(N)C(=O)O)C(=O)NCC(=O)O)cc1 (centres undefined) | 4.47 |  |  | 8.09 | 3.93 | 7.41 |  | 19.2 | 9.99 | 2.97 | 4.17 | 3.78 | 1.55 | 8.69 | 2.6 | 2.33 | 3.44 | 
CCN(CC)CC(C(=O)Nc1c(C)cccc1C)/C(C)=N/NC(N)=S (centres undefined) | > 100 |  |  | > 100 | > 100 |  |  | > 100 | > 100 | > 100 | > 100 | > 100 | > 100 | > 100 | > 100 | > 100 | > 100 | 
COc1cc2c(oc(=O)c3c4oc([Si](C)(C)C)cc4cc(OC)c23)c2cccc(O)c12 | > 100 |  |  | > 100 | > 100 | > 100 |  | > 100 | > 100 | > 100 | > 100 | > 100 | > 100 | > 100 | > 100 | > 100 | > 100 | 
COc1ccccc1C1C(Cl)C(=O)N1NC(=O)Cc1ccccc1 (centres undefined) | > 100 |  |  | > 100 | > 100 | > 100 |  | > 100 | > 100 |  | > 100 | > 100 | > 100 | > 100 | > 100 | > 100 | > 100 | 
N#C/C(=C/NC(=S)Nc1ccc(S(N)(=O)=O)cc1)C(N)=O | > 100 | > 100 |  | > 100 | > 100 | > 100 | > 100 | > 100 | > 100 | > 100 | > 100 | > 100 |  | > 100 | > 100 |  | > 100 | > 100
CC(C)CCC[C@@H](C)[C@H]1CC[C@H]2[C@@H]3CC=C4CC(OCCCCN(O)CCCSC5OC(CO)C(O)C(O)C5O)CC[C@]4(C)[C@H]3CC[C@]12C (some centres undefined) |  |  |  | > 100 | > 100 | > 100 |  | > 100 | > 100 | 32.8 | > 100 | > 100 | 50.7 | > 100 | > 100 | > 100 | > 100 | 
COc1cc(C2c3cc4c(c(O)c3C(=O)C3CCC(=O)N32)OCO4)cc(OC)c1OC (centres undefined) | > 100 | > 100 |  | > 100 | > 100 | > 100 | > 100 | > 100 | > 100 | > 100 | > 100 | > 100 | > 100 | > 100 | > 100 | > 100 | > 100 | 58.9
O=C(CSCC(=O)N/N=C\c1cc(Br)cc(Br)c1O)N/N=C\c1cc(Br)cc(Br)c1O | 42.5 | > 100 |  | > 100 | 74.7 | > 100 | > 100 | > 100 | > 100 | 78.8 | 31.4 | 92.2 | 34.1 | > 100 |  | 49.6 | > 100 | > 100
C[N+](C)(C)CC(=O)N/N=C(\C(=O)Nc1ccc(Cl)cc1)C1C(=O)N(c2ccccc2)N=C1N (centres undefined) | > 100 |  |  | > 100 | > 100 | > 100 |  | > 100 | > 100 | > 100 | > 100 | > 100 | > 100 |  | > 100 | > 100 | > 100 | 
O=c1[nH]c2cccccc-2c1-c1nc2ccccc2[nH]1 | 50.6 |  |  |  |  | 51.9 |  | 51.2 | > 100 | 54.3 | 51.6 | 47.6 | > 100 | > 100 | > 100 | 86.6 | 30.2 | 
COC[C@@H](N=Cc1ccc(OC)cc1)C(C)C | > 100 | > 100 |  | > 100 | > 100 | > 100 | > 100 | > 100 | > 100 |  | > 100 | > 100 | > 100 | > 100 |  | > 100 | > 100 | > 100
O=C(N/N=C/c1cc(-c2ccccc2Cl)c(-c2ccccc2Cl)o1)c1ccncc1 | > 100 |  |  |  |  | > 100 |  | > 100 | > 100 | > 100 | > 100 |  | > 100 | > 100 | > 100 |  | > 100 | 
CC1=C2CC3=C(C)C(=O)O[C@H]3C[C@@H](C)[C@@H]2CC1 | > 100 |  | > 100 | > 100 | > 100 | > 100 |  | > 100 | > 100 |  | > 100 | > 100 | > 100 | > 100 | > 100 | > 100 | > 100 | > 100
O=C(c1ccccc1)c1cc(-c2ccccc2)c(-c2ccccc2)[nH]c(=O)c1=O | > 100 |  | > 100 | > 100 | 57.2 | > 100 | > 100 | > 100 | 49.4 | > 100 | > 100 | > 100 | > 100 | > 100 | 40.4 | > 100 |  | > 100
